We go through six compounds from patent publication US20230128198A1, “NOVEL HETEROCYCLIC COMPOUNDS USEFUL AS AURORA A SELECTIVE INHIBITORS” (JACOBIO PHARMACEUTICALS CO., LTD., priority 2020, published 2023).

By Vss is commonly meant the apparent volume that relates the amount in the body to the concentration in plasma or blood. A higher Vss goes with extensive tissue distribution. Broadly, the Cmax is the maximum level reached in the sampled fluid or tissue. The term t½ denotes the time needed for the level to fall by half in the phase considered. Usually IC50 stands for the midpoint of a concentration-inhibition curve.

One data set can be described thus: PK in rat. In kind it is in vivo, SD male rats. How it is done:
The compounds were dissolved into 10% DMSO, 30% PEG400, and 60% saline to obtain a solution. SD male rats were given the compound orally and intravenously. Then plasma samples were collected at 0 hour (pre-dose), 0.25, 0.5, 1, 2, 4, 7, 24 hours post-dose. Plasma drug concentration was detected by LC-MS/MS. Pharmacokinetic parameters were calculated using WinNonlin's software with non-compartmental model.

The subject of data set [1] is NCI-H446 and NCI-H69 human small cell lung cancer xenograft model. The data set is described as follows: In vivo anti-tumor efficacy, xenograft model. The arrangement: species or system BALB/c nude mice. The note with it: 15 mg/kg po., BID × 10 days, QD × 19 days, treatment 29 days. How it is done:
This study is to examine the anti-tumor efficacy of test compounds in NCI-H446 and NCI-H69 human small cell lung cancer xenograft model in BALB/c nude mice. Each mouse was inoculated subcutaneously at the right flank region with NCI-H446 (3×10^6) and NCI-H69 cells (5×10^6) in 0.1 mL of PBS and Matrigel (1:1) for tumor development. The mouse were randomized according to tumor size and weight, the treatment began when the mean tumor size reached 100-200 mm^3. Anti-tumor activity was assessed according to relative tumor inhibition rate (TGI).
Tumor volumes were measured in two dimensions using a caliper, and the volume was expressed in mm^3 using the formula: V=0.5a×b^2 where a and bare the long and short diameters of the tumor, respectively. Statistical analysis of difference in tumor volume among the groups were performed using one-way ANOVA. All data was analyzed using SPSS 22.0 software. p<0.05 was considered to be statistically significant.

A further data set concerns the target T1, Aurora A (Homo sapiens, UniProt O14965).
T1 sequence (O14965 1-403): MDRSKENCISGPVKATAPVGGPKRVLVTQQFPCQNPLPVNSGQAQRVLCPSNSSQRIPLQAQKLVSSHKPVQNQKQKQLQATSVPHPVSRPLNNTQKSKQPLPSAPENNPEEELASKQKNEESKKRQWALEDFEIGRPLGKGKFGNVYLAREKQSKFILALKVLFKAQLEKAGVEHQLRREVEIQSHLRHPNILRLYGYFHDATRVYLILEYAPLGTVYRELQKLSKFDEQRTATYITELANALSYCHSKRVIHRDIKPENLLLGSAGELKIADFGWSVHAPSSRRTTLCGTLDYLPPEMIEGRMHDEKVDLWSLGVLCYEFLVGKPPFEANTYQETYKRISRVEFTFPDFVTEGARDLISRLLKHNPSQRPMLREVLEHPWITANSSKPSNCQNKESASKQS
The data set is described as follows: Aurora A kinase assay (mobility shift assay). The class given is biochemical. How it is done: (§1) Example A: Evaluation of Aurora a and Aurora B Inhibitory Effect—Kinase Assay
(§2) The inhibitory activities of a test compound against Aurora A and Aurora B were measured according to the following method.
(§3) The IC50 value of Aurora A and Aurora B kinase was performed by Sundia MediTech Co. Ltd. using Mobility shift assay.
(§4) • (1) Prepare a 1× kinase buffer [50 mM 4-(2-hydroxyethyl)-1-piperazineethanesulfonic acid (HEPES), PH 7.5, 0.01% Brij-35, 10 mM MgCl2, 2 mM dithiothreitol (DTT)]. • (2) Prepare compound:
The testing compound was dissolved with DMSO. The testing compound was diluted up to 100× final concentration in a 384-well plate. Transfer 250 nL of the compound dilution to a 384-well assay plate using Echo 550. […] Add 10 μL of the 1× kinase buffer to the negative control well. • (5) The 384-well plate was centrifuged at 1000 rpm for 30 seconds and incubated at room temperature for 10 min. • (6) A mixture of ATP and Kinase substrate 21 with a final concentration of 25/15× was prepared by the 1× kinase buffer. • (7) Add 15 µL of the mixture of 25/15×ATP and kinase substrate solution 21 to start reaction. • (8) The 384-well plate was centrifuged at 1000 rpm for 30 seconds and incubated at room temperature. • (9) 30 µL of the stop and detection buffer was added to stop the kinase reaction and centrifuged at 1000 rpm for 30 seconds. • (10) Collect data on Caliper EZ ReaderII. […]

The target in a further data set is Aurora B (Homo sapiens, UniProt Q96GD4). In words: Aurora B kinase assay (mobility shift assay). The class given is biochemical. The note with it: ratio of Aurora B IC50 to Aurora A IC50. How it is done:
as §1, §2, §3, §4
The testing compound was dissolved with DMSO. The testing compound was diluted up to 100× final concentration in a 384-well plate. Transfer 250 nL of the compound dilution to a 384-well assay plate using Echo 550. 100% DMSO of 250 nL was added to the negative control well and the positive control well. • (3) Prepare a 2.5× enzyme solution using the above 1× kinase buffer. • (4) Add 10 μL of the 2.5× enzyme solution to the compound well and the positive control well of the 384-well assay plate.
Conversion %_sample is conversion rate data of samples. Conversion %_min is mean value of negative control (conversion rate data without enzyme activation). Conversion %_max is mean positive control (conversion rate data without compound).
The log of concentration is on the X axis, and the percentage inhibition is on the Y axis.

Structures are written as SMILES.

Chain of Aurora B (Q96GD4 whole entry): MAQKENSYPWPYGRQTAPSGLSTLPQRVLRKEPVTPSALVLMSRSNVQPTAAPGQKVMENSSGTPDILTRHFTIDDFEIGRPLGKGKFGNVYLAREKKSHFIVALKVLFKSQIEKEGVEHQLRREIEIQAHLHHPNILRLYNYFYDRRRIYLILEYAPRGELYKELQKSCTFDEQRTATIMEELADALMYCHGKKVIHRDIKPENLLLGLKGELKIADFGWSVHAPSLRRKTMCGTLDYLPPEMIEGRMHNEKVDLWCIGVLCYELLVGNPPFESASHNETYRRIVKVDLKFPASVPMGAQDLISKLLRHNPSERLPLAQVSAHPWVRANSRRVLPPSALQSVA

In “PK in rat” (IV: 3 mg/kg), `Cc1cc(Nc2ccc(F)c(C[C@@]3(C(=O)O)CCN(Cc4cccc(Cl)c4F)[C@H](C)C3)n2)n[nH]1` [LY3295668] showed a CL of 1.52 mL/min/kg and a Vss of 0.29 L/kg. In “PK in rat” (PO: 10 mg/kg), this compound displayed an AUClast of 91211 ng·h/mL, a maximum concentration (Cmax) of 15033 ng/mL and a t½ of 3.37 h. For the same compound, in “PK in rat” (PO: 10 mg/kg vs IV: 3 mg/kg), the F % turned out to be 81%.

As for `Cc1cc(Nc2nc(C[C@@]3(C(=O)O)CCN(Cc4cccc(Cl)c4F)[C@H](C)C3)ccc2F)[nH]n1` [Example 5, (2R,4R)-1-(3-chloro-2-fluorobenzyl)-4-((5-fluoro-6-((3-methyl-1H-pyrazol-5-yl)amino)pyridin-2-yl)methyl)-2-methylpiperidine-4-carboxylic acid], in data set [1], the “TGI TV(%)” value worked out at 98% and the “TV (mean ± sem)” value is listed as 27 ± 5 mm^3.

For `Cc1cc(Nc2nc(C[C@@]3(C(=O)O)CCN(Cc4cccc(Cl)c4F)[C@H](C)C3)cc(C)c2F)n[nH]1` [Example 78, (2R,4R)-1-(3-chloro-2-fluorobenzyl)-4-((5-fluoro-4-methyl-6-((5-methyl-1H-pyrazol-3-yl)amino)pyridin-2-yl)methyl)-2-methylpiperidine-4-carboxylic acid], in data set [1], the “TGI TV(%)” value turned out to be 96% and the “TV (mean ± sem)” value worked out at 65 ± 14 mm^3.

Take `Cc1cc(Nc2cc(C)c(F)c(C[C@@]3(C(=O)O)CCN(Cc4cccc(Cl)c4F)[C@H](C)C3)n2)n[nH]1` [Example 49, (2R,4R)-1-(3-chloro-2-fluorobenzyl)-4-((3-fluoro-4-methyl-6-((5-methyl-1H-pyraz-ol-3-yl)amino)pyridin-2-yl)methyl)-2-methylpiperidine-4-carboxylic acid]: in data set [1], the “TGI TV(%)” value is given as 90% and the “TV (mean ± sem)” value stood at 160 ± 26 mm^3.

Regarding `CC(=O)c1cc(Nc2cc(C)[nH]n2)nc(CC2(C(=O)O)CCN(Cc3cccc(Cl)c3F)CC2)c1F` [Example 69, 4-((4-acetyl-3-fluoro-6-((5-methyl-1H-pyrazol-3-yl)amino)pyridin-2-yl)methyl)-1-(3-chloro-2-fluorobenzyl) piperidine-4-carboxylic acid], at Aurora A, the IC50 turned out to be 0.91 nM. On Aurora B, the “IC50 Ratio Aur B/Aur A” value is 1444.

For the compound `Cc1cc(Nc2cc(Cl)c(F)c(C[C@@]3(C(=O)O)CCN(Cc4cccc(Cl)c4F)[C@H](C)C3)n2)n[nH]1` [Example 72, (2R,4R)-1-(3-chloro-2-fluorobenzyl)-4-((4-chloro-3-fluoro-6-((5-methyl-1H-pyrazol-3-yl)amino)pyridin-2-yl)methyl)-2-methylpiperidine-4-carboxylic acid], in data set [1], the “TGI TV(%)” value is 89% and the “TV (mean ± sem)” value worked out at 176 ± 25 mm^3.
